The values below come from paper PMC6272715, “Discovery of Novel Small Molecule Anti-HCV Agents via the CypA Inhibitory Mechanism Using O-Acylation-Directed Lead Optimization” (Molecules, 2015).

Series [1] is described as follows: in vivo. Conditions: male, SD, rat, iv, i.v. 2 mg 25/kg; for AUC(0-inf): AUC0-∞.
For series [2] the following is noted: rats, intravenous injection of 25 (2 mg∙kg^−1).
The test system of series [3] is HCV JFH1-2a replicon. Nature of the series: HCV JFH1-2a subgenomic replicon assay (Renilla luciferase, Huh 7.5.1 replicon cells). In kind it is cell-based. Conditions: Hepatitis C virus, Table 4, read-out: Anti-HCV Activity EC50 ± SD Replicon Assay JFH1-2a.
For series [4], the target named is T1, hERG channels (Homo sapiens, UniProt Q12809).
T1 construct: expressed in transfected cells; host or cells: CHO cells, stably transfected
Nature of the series: hERG cardiac toxicity assay (automated QPatch, CHO cells expressing hERG). Format: cell-based. Conditions: QPatch whole-cell recording. As to the method:
After intravenous administration, blood samples (0.2 mL) were collected at designated time points (0, 5, 15, 30, 45 min, 1, 2, 3, 5, 8, 12 and 24 h) from the eye venous sinus of the rats. The blood samples were centrifuged at 14800 rpm for 10 min to obtain the plasma fraction. The plasma samples were kept frozen (−20 °C) until analysis by a liquid chromatography-tandem mass spectrometry (LC-MS/MS).
Table S3. Pharmacokinetic parameters after intravenous administration of 25 to SD rats at […]
Pharmacokinetic Parameters 25 (Intravenous Injection of 2 mg 25/kg) Rat 1 Rat 2 a Rat 3 Mean ± SD […]
1 (intravenous injection of 2mg 25/kg) Rat 1 Rat 2 a Rat 3 Mean ± SD […]
a Rat 2: parts of the sample of 25 was injected into the subcutaneous tissues which lead to the uncertainty of the plasma concentration, so this rat was not incorporated into the calculation of pharmacokinetic parameters; b Cmax: maximum plasma concentration taken directly from measured values; c Tmax: time to reach Cmax; d AUC0-∞: integrated area under plasma concentration vs. time curve from time 0 to time infinity; e MRT: mean residence time; f t1/2: half-life. g N: parts of the data below the LLOQ, that result in the uncertainty of the pharmacokinetic parameters. hERG Cardiac Toxicity Assay of Compound 25 […]
After achieving break-in (whole-cell) configuration, the cells were recorded for 120 s to assess current stability. […]
A general note: Block of hERG is tested as a sign of cardiac risk.

Series [5] has as its target CypA (Homo sapiens, UniProt P62937). Nature of the series: CypA enzyme inhibition assay (chymotrypsin-coupled PPIase assay). The conditions noted are these: mean ± SD of five independent experiments. In kind it is biochemical. As to the method: The PPIase activity of CypA was conducted in a coupled assay with chymotrypsin using the synthetic tetrapeptide N-succinyl-Ala-Ala-Pro-Phe-p-nitroanilide (Sigma, Shanghai, China) as described in [34] with small modifications. The assay buffer (20 mM Tris-HCl, 50 mM NaCl, pH 7.8) and CypA were precooled at 4 °C and mixed with 0.4 mg∙mL^−1 chymotrypsin (20 mg∙mL^−1 in 1 mM HCl). The reaction was initiated by adding peptide substrate (2 mg∙mL^−1 in 500 mM LiCl in tetrahydrofuran (THF)). […] Absorbance readings were collected every 0.1 s and the temperature was controlled at 4 °C during the assay. The progress curves were analyzed by nonlinear least-squares fit. The inhibition assays of compounds were performed in the same manner as above-mentioned. […] of test compounds in DMSO, at various concentrations, was added to the CypA solution in the assay buffer. After being preincubated for 1 h at 4 °C, the assay was started by the addition of chymotrypsin and the substrate. To calculate the half-maximal inhibitory concentration (IC50), a percent of the remaining PPIase activity was plotted against the common logarithm of the compound concentration, and the data were fitted using the sigmoidal fitting model of Origin 7.0 software.

Series [6] concerns JFH1-2a (S282T) virus. Nature of the series: HCV virus assay, mutant JFH1-2a (S282T) virus strain. In kind it is cell-based. Conditions: Hepatitis C virus, read-out: Anti-HCV Activity (Virus Assay) EC50 ± SD JFH1-2a (S282T).
The mark [7] stands for this setting: SD rats, Mean ± SD (Rat 1 and 3).

A word on the AUC(0-inf): it is total exposure, with the tail of the curve extrapolated. A higher AUC(0-inf) goes with more exposure. Broadly, the Cmax is the maximum level reached in the sampled fluid or tissue. What is called MRT is a mean duration of stay, worked out from the concentration-time curve. Usually half-life stands for the time needed for the level to fall by half in the phase considered. The low end stands for rapid decline, the high end for slow decline. What is called EC50 is the concentration that produces a half-maximal response. What is called IC50 is the midpoint of a concentration-inhibition curve. What is called melting point is the temperature of the solid-liquid transition.

Each structure is given as a SMILES string.

Chain of CypA (P62937 whole entry): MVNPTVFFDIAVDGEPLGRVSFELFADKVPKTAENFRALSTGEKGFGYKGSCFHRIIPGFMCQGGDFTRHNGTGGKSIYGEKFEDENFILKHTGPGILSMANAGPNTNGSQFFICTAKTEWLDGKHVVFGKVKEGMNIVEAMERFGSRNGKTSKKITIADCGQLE
T1 sequence (Q12809 whole entry): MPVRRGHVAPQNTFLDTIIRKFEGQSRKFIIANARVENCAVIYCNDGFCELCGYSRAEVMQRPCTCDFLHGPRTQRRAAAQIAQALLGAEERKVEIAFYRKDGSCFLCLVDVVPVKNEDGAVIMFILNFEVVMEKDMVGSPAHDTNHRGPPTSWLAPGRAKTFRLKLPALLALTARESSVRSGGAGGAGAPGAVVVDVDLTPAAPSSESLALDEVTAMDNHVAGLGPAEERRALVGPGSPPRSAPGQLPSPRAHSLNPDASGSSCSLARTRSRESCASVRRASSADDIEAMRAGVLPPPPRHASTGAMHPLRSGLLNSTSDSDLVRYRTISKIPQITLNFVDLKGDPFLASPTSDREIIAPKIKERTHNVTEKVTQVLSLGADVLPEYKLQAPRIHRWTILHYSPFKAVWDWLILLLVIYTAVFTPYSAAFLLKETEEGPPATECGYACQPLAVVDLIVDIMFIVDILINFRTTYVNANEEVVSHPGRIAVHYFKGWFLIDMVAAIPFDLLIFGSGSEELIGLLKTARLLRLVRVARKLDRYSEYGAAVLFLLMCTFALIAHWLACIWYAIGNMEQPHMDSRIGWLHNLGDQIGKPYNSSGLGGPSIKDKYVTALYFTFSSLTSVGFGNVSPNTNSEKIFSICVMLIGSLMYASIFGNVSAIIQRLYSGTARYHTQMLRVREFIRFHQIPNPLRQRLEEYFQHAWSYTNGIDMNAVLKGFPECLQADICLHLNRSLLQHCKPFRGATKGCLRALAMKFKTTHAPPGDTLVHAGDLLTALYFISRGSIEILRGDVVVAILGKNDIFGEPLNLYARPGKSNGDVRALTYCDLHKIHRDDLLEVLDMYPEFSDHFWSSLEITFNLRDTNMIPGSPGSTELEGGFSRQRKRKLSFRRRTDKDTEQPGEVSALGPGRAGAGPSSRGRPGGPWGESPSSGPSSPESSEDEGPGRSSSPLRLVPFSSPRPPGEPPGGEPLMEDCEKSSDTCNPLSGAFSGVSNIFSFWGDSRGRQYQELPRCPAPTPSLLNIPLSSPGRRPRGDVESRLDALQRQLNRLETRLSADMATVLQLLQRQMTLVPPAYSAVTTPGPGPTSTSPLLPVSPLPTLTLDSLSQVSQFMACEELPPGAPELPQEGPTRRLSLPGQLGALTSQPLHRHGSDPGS

The molecule `CCCCCCCC(=O)Oc1cccc(O)c1C(=O)NC(=O)NC1c2ccccc2-c2ccccc21` [Compound 25, 1-(2-Hydroxy-6-n-Octanoyloxybenzoyl)-3-(9H-fluoren-9-yl)-urea] had a melting point of 184 to 189 °C. In series [1] (SD rat, Rat 1), this molecule registered an AUC(0-inf) of 5.66 ng·h/mL, a Cmax of 13.4 ng/mL and an MRT of 2.42 h. Further, in series [1] (SD rat, Rat 3), the AUC(0-inf) stood at 5.3 ng·h/mL, the Cmax came to 27.5 ng/mL and the MRT stood at 0.21 h. Further, in series [1] (setting [7]), the AUC(0-inf) amounted to 5.48 ± 0.25 ng·h/mL, the Cmax was found to be 20.5 ± 9.99 ng/mL and the MRT was found to be 1.3 ± 1.6 h. This molecule also had a half-life in series [1] (t1/2, SD rat, Rat 1) of 5.4 h. In series [1] (t1/2, SD rat, Rat 3), the half-life was 0.12 h. In series [1] (t1/2, SD rats, Mean ± SD (Rat 1 and 3)), this molecule gave a half-life of 2.76 ± 3.73 h. In addition, the “plasma concentration after 5 min (mean ± SD)” value in series [2] was determined as 20.47 ± 9.99 ng/mL. Moreover, the EC50 in series [3] turned out to be 450 ± 80 nM. Also, in series [4], the IC50 was above 15000 nM. Also, the IC50 in series [5] was above 5000 nM. For the same molecule, the EC50 in series [6] came out at 290 ± 70 nM.
